Drawing on patent US20230295212A1 (ROME Therapeutics, Inc., priority 2022, published 2023), this text covers IC50 for 32 compounds.

A value given as a limit tells only on which side of the number the result lay.

The term IC50 denotes the midpoint of a concentration-inhibition curve. Low readings indicate higher potency, high ones lower potency.

The first assay deals with T1, LINE1 reverse transcriptase (Homo sapiens, UniProt O00370).
T1 construct: expressed in transfected cells; host or cells: HeLa Tet-On 3G (Takara, cat no 631183)
T1 sequence (O00370 whole entry, looked up): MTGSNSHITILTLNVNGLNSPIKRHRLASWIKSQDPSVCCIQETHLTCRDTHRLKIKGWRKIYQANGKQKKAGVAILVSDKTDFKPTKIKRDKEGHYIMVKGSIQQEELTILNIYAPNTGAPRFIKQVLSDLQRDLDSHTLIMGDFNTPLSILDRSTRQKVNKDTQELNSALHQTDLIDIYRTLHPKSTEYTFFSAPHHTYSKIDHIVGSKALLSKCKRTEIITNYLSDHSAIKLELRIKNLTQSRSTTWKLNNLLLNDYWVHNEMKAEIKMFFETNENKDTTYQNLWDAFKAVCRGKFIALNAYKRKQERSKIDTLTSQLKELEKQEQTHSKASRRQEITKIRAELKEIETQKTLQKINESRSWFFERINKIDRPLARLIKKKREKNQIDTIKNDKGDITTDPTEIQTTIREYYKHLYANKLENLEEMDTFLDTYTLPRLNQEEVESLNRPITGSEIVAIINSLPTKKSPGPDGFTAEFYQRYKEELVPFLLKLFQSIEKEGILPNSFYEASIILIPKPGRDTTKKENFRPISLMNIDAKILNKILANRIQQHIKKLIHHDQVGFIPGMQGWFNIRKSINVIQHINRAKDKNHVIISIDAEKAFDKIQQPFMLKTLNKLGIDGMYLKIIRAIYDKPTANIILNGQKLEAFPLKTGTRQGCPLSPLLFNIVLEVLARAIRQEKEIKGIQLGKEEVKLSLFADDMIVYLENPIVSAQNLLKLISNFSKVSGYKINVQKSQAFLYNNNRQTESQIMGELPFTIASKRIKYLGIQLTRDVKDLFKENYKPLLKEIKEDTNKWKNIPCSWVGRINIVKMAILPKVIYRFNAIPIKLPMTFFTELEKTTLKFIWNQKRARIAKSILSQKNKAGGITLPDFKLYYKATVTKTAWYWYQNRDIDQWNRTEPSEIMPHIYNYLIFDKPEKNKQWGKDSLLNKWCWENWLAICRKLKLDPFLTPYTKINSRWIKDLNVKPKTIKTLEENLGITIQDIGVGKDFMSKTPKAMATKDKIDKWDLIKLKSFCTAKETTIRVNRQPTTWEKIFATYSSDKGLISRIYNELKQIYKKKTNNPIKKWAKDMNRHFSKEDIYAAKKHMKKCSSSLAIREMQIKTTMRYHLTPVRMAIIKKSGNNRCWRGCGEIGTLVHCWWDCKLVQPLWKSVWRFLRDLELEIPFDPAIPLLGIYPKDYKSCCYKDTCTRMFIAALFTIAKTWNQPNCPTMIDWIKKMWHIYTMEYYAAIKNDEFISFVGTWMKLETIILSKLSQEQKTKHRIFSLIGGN
As to the kind of experiment: Stable artificial-intron Cis LINE1 reporter assay (HeLa Tet-On 3G, Firefly luciferase). Type of assay: cell-based. To be noted: HeLa L1 artificial-intron reporter cells, doxycycline 500 ng/mL, 72 h, class symbols. Here is the method:
Exemplary compounds, were tested for the ability to inhibit LINE1 reverse transcriptase using a stable artificial-intron Cis LINE1 reporter assay. Assay procedures and results are described below.
A stable HeLa Tet-On 3G (Takara, cat no 631183) cell line expressing a bi-directional inducible LINE1 construct was generated as described in Xie, Y. et al. “Cell division promotes efficient retrotransposition in a stable L1 reporter cell line,” Mobile DNA (2013) 4:10. Single cell clones were screened for high Luciferase expression and the highest expression Firefly expressing clone was chosen for compound testing.
Test compounds were serially diluted in DMSO and spotted in 96-well plates. Subsequently, the HeLa Li artificial-intron reporter cells were plated into the compound-containing wells (8,000 cells/well), and the cells were induced for reporter expression with doxycycline (Sigma-Aldrich cat #D9891) at a final concentration of 500 ng/mL. Luminescence was measured 72 h after plating using the Dual-Glo Luciferase Assay System (Promega cat #E2940) following the manufacturer's instructions. The Firefly Luciferase activity was used to report LINE1 activity.
For orientation: In a reporter assay the amount or activity of a reporter protein is the signal.
`[N-]=[N+]=N[C@]1(CO)O[C@@H](n2cnc3c(=O)[nH]c(N)nc32)C[C@@H]1O` [Compound 108, 2-amino-9-((2R,4S,5R)-5-azido-4-hydroxy-5-(hydroxymethyl)tetrahydrofuran-2-yl)-1,9-dihydro-6H-purin-6-one] had an IC50 of 50 to 100 nM.
The same measure, in the same setting: under `Nc1ccn([C@H]2C[C@@H](O)[C@](CO)(CCl)O2)c(=O)n1` [Compound 59, 4-amino-1-[(2R,4R,5R)-5-(chloromethyl)-4-hydroxy-5-(hydroxymethyl)oxolan-2-yl] pyrimidin-2-one] stands above 1000 nM; under `Nc1nc(F)nc2c1ncn2[C@H]1C[C@H](O)[C@](CO)(CCl)O1` [Compound 8, (2R,3S,5R)-5-(6-amino-2-fluoro-9H-purin-9-yl)-2-(chloromethyl)-2-(hydroxymethyl)tetrahydrofuran-3-ol], 100 to 250 nM; under `C=C=C[C@]1(CO)O[C@@H](n2cnc3c(N)nc(F)nc32)C[C@@H]1O` [Compound 164, (2R,3S,5R)-5-(6-amino-2-fluoropurin-9-yl)-2-(hydroxymethyl)-2-(propa-1,2-dien-1-yl)oxolan-3-ol], 250 to 1000 nM.
On the same count and under the same terms, to `O=c1nc(NO)ccn1[C@@H]1O[C@@](CO)(CCl)[C@@H](O)[C@H]1F` [Compound 28, 1-((2R,3R,4R,5R)-5-(chloromethyl)-3-fluoro-4-hydroxy-5-(hydroxymethyl)tetrahydrofuran-2-yl)-4-(hydroxyamino)pyrimidin-2(1H)-one] belongs above 1000 nM; to `Nc1ncnc2c1ncn2[C@H]1C[C@H](O)[C@](CO)(CCl)O1` [Compound 15, (2R,3S,5R)-5-(6-amino-9H-purin-9-yl)-2-(chloromethyl)-2-(hydroxymethyl)tetrahydrofuran-3-ol], 250 to 1000 nM; to `Nc1nc(=O)n([C@H]2C[C@H](O)[C@](CO)(CF)O2)cc1F` [Compound 22, 4-amino-5-fluoro-1-((2R,4S,5R)-5-(fluoromethyl)-4-hydroxy-5-(hydroxymethyl)tetrahydrofuran-2-yl)pyrimidin-2(1H)-one], at most 50 nM.
The same measure, in the same setting: under `Nc1nc(=O)n([C@@H]2O[C@@](CO)(C3CC3)[C@@H](O)[C@@H]2F)cc1F` [Compound 122, 4-amino-1-[(2R,3S,4R,5R)-5-cyclopropyl-3-fluoro-4-hydroxy-5-(hydroxymethyl)oxolan-2-yl]-5-fluoropyrimidin-2-one] stands 250 to 1000 nM.
Regarding `[N-]=[N+]=N[C@]1(CO)O[C@@H](n2ccc(N)nc2=O)[C@@H](F)[C@@H]1O` [Compound 50, 4-amino-1-((2R,3S,4R,5R)-5-azido-3-fluoro-4-hydroxy-5-(hydroxymethyl)tetrahydrofuran-2-yl)pyrimidin-2(1H)-one], the IC50 was at most 50 nM.
Still for that read-out and setting: to `CC(C)C(=O)OC[C@@]1(CCl)O[C@@H](n2ccc(N)nc2=O)[C@H](F)[C@@H]1OC(=O)C(C)C` [Compound 24, (2R,3R,4R,5R)-5-(4-amino-2-oxopyrimidin-1(2H)-yl)-2-(chloromethyl)-4-fluoro-2-((isobutyryloxy)methyl) tetrahydrofuran-3-yl isobutyrate] belongs 250 to 1000 nM; to `CC[C@]1(CO)O[C@@H](n2cc(F)c(N)nc2=O)[C@@H](O)[C@@H]1O` [Compound 78, 4-amino-1-((2R,3S,4S,5R)-5-ethyl-3,4-dihydroxy-5-(hydroxymethyl)tetrahydrofuran-2-yl)-5-fluoropyrimidin-2(1H)-one], 50 to 100 nM; to `Nc1nc(=O)n([C@@H]2O[C@](/C=C/Cl)(CO)[C@@H](O)[C@@H]2F)cc1F` [Compound 131, 4-amino-1-[(2R,3S,4R,5R)-5(E)-(2-chloroethenyl)-3-fluoro-4-hydroxy-5-(hydroxymethyl)oxolan-2-yl]-5-fluoropyrimidin-2-one], 100 to 250 nM.
On to `CC[C@]1(CO)O[C@@H](n2ccc(N)nc2=O)[C@@H](F)[C@@H]1O` [Compound 51, 4-amino-1-((2R,3S,4R,5R)-5-ethyl-3-fluoro-4-hydroxy-5-(hydroxymethyl)tetrahydrofuran-2-yl)pyrimidin-2(1H)-one], for which the 50% inhibitory concentration (IC50) was at most 50 nM.
On the same count and under the same terms, to `O=c1ccn([C@@H]2O[C@@](CO)(CCl)[C@@H](O)[C@H]2F)c(=O)[nH]1` [Compound 29, 1-((2R,3R,4R,5R)-5-(chloromethyl)-3-fluoro-4-hydroxy-5-(hydroxymethyl)tetrahydrofuran-2-yl)pyrimidine-2,4(1H,3H)-dione] belongs above 1000 nM; to `Cc1cn([C@@H]2O[C@@](CO)(CCl)[C@@H](O)[C@@H]2F)c(=O)[nH]c1=O` [Compound 176], above 1000 nM.
On the same count and under the same terms, under `CC[C@]1(CO)O[C@@H](n2cnc3c(=O)[nH]c(N)nc32)[C@@H](F)[C@@H]1O` [Compound 68, 2-amino-9-((2R,3S,4R,5R)-5-ethyl-3-fluoro-4-hydroxy-5-(hydroxymethyl)tetrahydrofuran-2-yl)-1,9-dihydro-6H-purin-6-one] stands 100 to 250 nM.
Same read-out and setting: to `CC(C)C(=O)OC[C@@]1(CCl)O[C@@H](n2cc(F)c(N)nc2=O)C[C@@H]1OC(=O)C(C)C` [Compound 58] belongs 50 to 100 nM; to `C#C[C@]1(CO)O[C@@H](n2ccc(N)nc2=O)[C@H](F)[C@@H]1O` [Compound 32, 4-amino-1-((2R,3R,4R,5R)-5-ethynyl-3-fluoro-4-hydroxy-5-(hydroxymethyl)tetrahydrofuran-2-yl)pyrimidin-2(1H)-one], above 1000 nM.
For `Nc1nc(F)nc2c1ncn2[C@@H]1O[C@@](CO)(CF)[C@@H](O)[C@@H]1F` [Compound 84], the IC50 is above 1000 nM.
Still for that read-out and setting: to `Nc1ccn([C@@H]2O[C@H](CO)[C@@H](O)C2(F)F)c(=O)n1` [Compound 111, 4-amino-1-((2R,4R,5R)-3,3-difluoro-4-hydroxy-5-(hydroxymethyl)tetrahydrofuran-2-yl)pyrimidin-2(1H)-one] belongs at most 50 nM; to `C#C[C@]1(CO)O[C@@H](c2ccc3c(N)ncnn23)C[C@@H]1O` [Compound 37, (2R,3S,5R)-5-(4-aminopyrrolo[2,1-f][1,2,4]triazin-7-yl)-2-ethynyl-2-(hydroxymethyl) tetrahydrofuran-3-ol], at most 50 nM.
Still for that read-out and setting: to `Nc1nc(=O)n([C@@H]2O[C@](/C=C\F)(CO)[C@@H](O)[C@@H]2F)cc1F` [Compound 123, 4-amino-5-fluoro-1-((2R,3S,4R,5R)-3-fluoro-5-((Z)-2-fluorovinyl)-4-hydroxy-5-(hydroxymethyl)tetrahydrofuran-2-yl)pyrimidin-2(1H)-one] belongs 50 to 100 nM; to `Nc1nc(F)nc2c1ncn2[C@H]1C[C@H](O)C(CO)(CO)O1` [Compound 10, ((3S,5R)-5-(6-amino-2-fluoro-9H-purin-9-yl)-3-hydroxytetrahydrofuran-2,2-diyl)dimethanol], above 1000 nM; to `C[C@]1(CO)O[C@@H](n2ccc(N)nc2=O)C[C@@H]1O` [Compound 106, 4-amino-1-((2R,4S,5R)-4-hydroxy-5-(hydroxymethyl)-5-methyltetrahydrofuran-2-yl)pyrimidin-2(1H)-one], at most 50 nM.
Same read-out and setting: under `Cc1cn([C@H]2C[C@H](O)[C@](CO)(N=[N+]=[N-])O2)c(=O)[nH]c1=O` [Compound 30, 1-((2R,4S,5R)-5-azido-4-hydroxy-5-(hydroxymethyl)tetrahydrofuran-2-yl)-5-methylpyrimidine-2,4(1H,3H)-dione] stands above 1000 nM; under `Nc1nc(=O)n([C@H]2C[C@H](O)[C@](CO)(C(F)F)O2)cc1F` [Compound 65, 4-amino-1-[(2R,4S,5R)-5-(difluoromethyl)-4-hydroxy-5-(hydroxymethyl)oxolan-2-yl]-5-fluoropyrimidin-2-one], at most 50 nM.
In turn, `[N-]=[N+]=N[C@]1(CO)O[C@@H](c2cc(I)c3c(N)ncnn23)C[C@@H]1O` [Compound 161, (2R,3S,5R)-5-(4-amino-5-iodopyrrolo[2,1-f][1,2,4]triazin-7-yl)-2-azido-2-(hydroxymethyl)tetrahydrofuran-3-ol] displayed an IC50 of 50 to 100 nM.
For the compound `C#C[C@@H]1[C@H](n2ccc(N)nc2=O)O[C@](C)(CO)[C@H]1O` [Compound 20, 4-amino-1-((2R,3S,4S,5R)-3-ethynyl-4-hydroxy-5-(hydroxymethyl)-5-methyltetrahydrofuran-2-yl)pyrimidin-2(1H)-one], the IC50 is above 1000 nM.

The assay is the same for the next values; noted with them: HeLa L1 artificial-intron reporter cells, doxycycline 500 ng/mL, 72 h, numeric bounds.
As for `Nc1nc(=O)n([C@H]2C[C@H](O)[C@](CO)(CCl)O2)cc1C(F)(F)F` [Compound 71, 4-amino-1-((2R,4S,5R)-5-(chloromethyl)-4-hydroxy-5-(hydroxymethyl)tetrahydrofuran-2-yl)-5-(trifluoromethyl)pyrimidin-2(1H)-one], the IC50 is above 30000 nM.
Still for that read-out and setting: under `CC(O)[C@]1(CO)O[C@@H](n2cc(F)c(=O)[nH]c2=O)[C@@H](F)[C@@H]1O` (stereo partly drawn) [Compound 162, 5-fluoro-1-[(2R,3S,4R,5S)-3-fluoro-4-hydroxy-5-(1-hydroxyethyl)-5-(hydroxymethyl)oxolan-2-yl]-3H-pyrimidine-2,4-dione] stands above 30000 nM; under `O=c1ccn([C@H]2C[C@H](O)[C@](CO)(CCl)O2)c(=O)[nH]1` [Compound 34, 1-((2R,4S,5R)-5-(chloromethyl)-4-hydroxy-5-(hydroxymethyl)tetrahydrofuran-2-yl)pyrimidine-2,4(1H,3H)-dione], above 30000 nM.
On the same count and under the same terms, to `Nc1nc2c(ncn2[C@@H]2O[C@@](CO)(CCl)[C@@H](O)[C@@H]2O)c(=O)[nH]1` [Compound 94, 2-amino-9-[(2R,3S,4S,5R)-5-(chloromethyl)-3,4-dihydroxy-5-(hydroxymethyl)oxolan-2-yl]-1H-purin-6-one] belongs above 30000 nM.
